Assay results as given in article PMC9238401, “Peptide Conjugates Derived from flg15, Pep13, and PIP1 That Are Active against Plant-Pathogenic Bacteria and Trigger Plant Defense Responses” (Applied and Environmental Microbiology, 2022).
No end group written: not given here.

Columns and labels:
horse erythrocytes = details: TRIS buffer pH 7.2, 1 h, 37°C, absorbance 540 nm, relative to melittin 100 μM, ± confidence interval (α = 0.05)
Summary of the method: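 Horse erythrocytes washed in 10 mM Tris, 150 mM NaCl, pH 7.2 were mixed 1:1 with compound solutions at 750, 500, 300 and 100 μM and shaken 1 h at 37°C. Hemoglobin release read at 540 nm in supernatant; % hemolysis relative to buffer and melittin control.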

tobacco leaves = experiment: Effect of peptide infiltration on tobacco leaves (phytotoxicity); type: in vivo; details: in vivo
Summary of the method: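 Peptide solutions at 50, 150 and 250 μM were infiltrated into the mesophyll of fully expanded tobacco leaves, with at least three leaves per peptide and dose on different plants. Water and equimolar melittin served as controls. Lesion diameter was measured 48 h after infiltration.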

[1] = tested on: Erwinia amylovora PMV6076; experiment: In vitro growth inhibition (MIC); type: cell-based; details: TSB, 25°C, 48 h, OD 600 nm (Bioscreen C), three replicates, experiment repeated twice; MIC = lowest concentration with no growth, given as range
Summary of the method: (§1)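 Bacterial suspensions (10^8 CFU mL^−1, from 24 h plates at 25°C) mixed with peptide dilutions in TSB, triplicate wells. OD600 read hourly over 48 h at 25°C with shaking. MIC = lowest concentration with no growth at end of run.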

[2] = tested on: Pseudomonas syringae pv. syringae EPS94; experiment: In vitro growth inhibition (MIC); type: cell-based; details: TSB, 25°C, 48 h, OD 600 nm (Bioscreen C), three replicates, experiment repeated twice; MIC given as range
Summary of the method: as §1

[3] = tested on: Xanthomonas arboricola pv. pruni CFBP5563; experiment: In vitro growth inhibition (MIC); type: cell-based; details: TSB, 25°C, 48 h, OD 600 nm (Bioscreen C), three replicates, experiment repeated twice; MIC given as range
Summary of the method: as §1

[4] = tested on: Xanthomonas fragariae Xf349-9A; experiment: In vitro growth inhibition (MIC); type: cell-based; details: TSB, 25°C, 48 h, OD 600 nm (Bioscreen C), three replicates, experiment repeated twice; MIC given as range
Summary of the method: as §1

[5] = tested on: Pseudomonas syringae pv. actinidiae Psa3700.1.1; experiment: In vitro growth inhibition (MIC); type: cell-based; details: TSB, 25°C, 48 h, OD 600 nm (Bioscreen C), three replicates, experiment repeated twice; MIC given as range
Summary of the method: as §1

[6] = HPLC retention time as indicator of relative hydrophobicity; type: physicochemical; details: chromatographic, Kromasil 100 C18 (4.6 mm × 40 mm, 3 μm), linear gradient 2 to 100% B over 12 min, 1 mL/min; A 0.1% aqueous TFA, B 0.1% TFA in CH3CN; used as indicator of relative hydrophobicity
Summary of the method: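 Reversed-phase HPLC on Kromasil 100 C18 (4.6 × 40 mm, 3 μm), 0.1% TFA in water/acetonitrile, linear 2–100% B at 1 mL/min over 7 min (method A, UV 220 nm) or 12 min (method B). Retention time serves as relative hydrophobicity.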

[7] = tested on: Xanthomonas axonopodis pv. vesicatoria 2133-2; details: TSB, 25°C, 48 h, OD 600 nm (Bioscreen C), three replicates, experiment repeated twice; MIC given as range
Summary of the method: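 Bacteria grown 24 h (48 h for Xanthomonas axonopodis, X. fragariae) at 25°C, suspended at 10^8 CFU mL^−1, mixed with peptide dilutions in TSB.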

[8] = tested on: plant-pathogenic bacteria (E. amylovora, X. arboricola pv. pruni, X. fragariae, X. axonopodis pv. vesicatoria, P. syringae pv. actinidiae, P. syringae pv. …); details: 24 h

KKLFKKILKYLVWNQPVRGFKVYE [BP100-Pep13]
Percent hemolysis at 50 μM (horse erythrocytes): 5 ± 0.3% | Percent hemolysis at 150 μM (horse erythrocytes): 12 ± 1.1% | Percent hemolysis at 250 μM (horse erythrocytes): 20 ± 2.4% | Percent hemolysis at 375 μM (horse erythrocytes): 30 ± 3.2% | Size of the lesions in infiltrated tobacco leaves at 50 μM (tobacco leaves): 0.04 ± 0.08 cm | Size of the lesions in infiltrated tobacco leaves at 150 μM (tobacco leaves): 0.32 ± 0.11 cm | Size of the lesions in infiltrated tobacco leaves at 250 μM (tobacco leaves): 0.42 ± 0.10 cm | MIC, Ea [1]: 0.8 to 1.6 µM | MIC, Pss [2]: 1.6 to 3.1 µM | MIC, Xap [3]: 1.6 to 3.1 µM | MIC, Xf [4]: 3.1 to 6.2 µM | MIC, Psa [5]: 0.8 to 1.6 µM | tR (min), HPLC retention time (method B) [6]: 5.53 min | MIC, Xav [7]: 1.6 to 3.1 µM | MIC against four pathogens [8]: 0.8 to 3.1 µM

VWNQPVRGFKVYEKKLFKKILKKL-NH2 [Pep13-BP16]
Percent hemolysis at 50 μM (horse erythrocytes): 2 ± 0.6% | Percent hemolysis at 150 μM (horse erythrocytes): 3 ± 0.2% | Percent hemolysis at 250 μM (horse erythrocytes): 4 ± 0.3% | Percent hemolysis at 375 μM (horse erythrocytes): 4 ± 0.2% | Size of the lesions in infiltrated tobacco leaves at 50 μM (tobacco leaves): 0.23 ± 0.07 cm | Size of the lesions in infiltrated tobacco leaves at 150 μM (tobacco leaves): 0.52 ± 0.14 cm | Size of the lesions in infiltrated tobacco leaves at 250 μM (tobacco leaves): 0.93 ± 0.19 cm | MIC, Ea [1]: 6.2 to 12.5 µM | MIC, Pss [2]: 6.2 to 12.5 µM | MIC, Xap [3]: 0.8 to 1.6 µM | MIC, Xf [4]: 3.1 to 6.2 µM | MIC, Psa [5]: 1.6 to 3.1 µM | tR (min), HPLC retention time (method B) [6]: 5.70 min | MIC, Xav [7]: 0.8 to 1.6 µM | MIC against all the bacteria tested (span over the six pathogens) [8]: 0.8 to 12.5 µM

VWNQPVRGFKVYEKKLFKKILKYL-NH2 [Pep13-BP100]
Percent hemolysis at 50 μM (horse erythrocytes): 9 ± 1.0% | Percent hemolysis at 150 μM (horse erythrocytes): 25 ± 2.4% | Percent hemolysis at 250 μM (horse erythrocytes): 45 ± 9.0% | Percent hemolysis at 375 μM (horse erythrocytes): 49 ± 9.2% | Size of the lesions in infiltrated tobacco leaves at 50 μM (tobacco leaves): 0.26 ± 0.08 cm | Size of the lesions in infiltrated tobacco leaves at 150 μM (tobacco leaves): 0.56 ± 0.13 cm | Size of the lesions in infiltrated tobacco leaves at 250 μM (tobacco leaves): 0.70 ± 0.15 cm | MIC, Ea [1]: 6.2 to 12.5 µM | MIC, Pss [2]: 6.2 to 12.5 µM | MIC, Xap [3]: 0.8 to 1.6 µM | MIC, Xf [4]: 6.2 to 12.5 µM | MIC, Psa [5]: 3.1 to 6.2 µM | tR (min), HPLC retention time (method B) [6]: 6.14 min | MIC, Xav [7]: 0.8 to 1.6 µM | MIC against all the bacteria tested (span over the six pathogens) [8]: 0.8 to 12.5 µM
